Assay results from publication PMC10503797, “Allosteric modulator potentiates β2AR agonist–promoted bronchoprotection in asthma models” (The Journal of Clinical Investigation, 2023).
Where “and” joins values, the source holds several entries; their conditions need not be identical. Identical values can stand only once. Like-named read-outs stand apart in the source and are kept apart here.

What was measured:
guinea pig lung slices = assay: Methacholine-induced airway constriction in guinea pig lung slices; format: cell-based; conditions: for MCh-induced airway constriction response (Figure 5D): Exp1-6; for EC50: Cavia porcellus
Protocol: All curve fits were generated using the software program GraphPad Prism. Data are represented as mean ± SEM obtained from 6 guinea pigs.
Precision-cut lung slices were prepared as described previously ([61], [62]). A 3% solution of low melting-point agarose (Gerbu Biotechnik GmbH) in ultrapure water was prepared by heating it a microwave until fully dissolved. […] After filling, the lungs were covered with ice for 30 minutes to solidify the agarose for slicing. […] Lung slices were cut at a thickness of 500 μm and washed several times with slicing buffer to remove debris and washout the isoproterenol. Slices were incubated overnight in a 60 mm dish in sterile incubation buffer: MEM composed of lung slice buffer supplemented with 0.5 mM sodium pyruvate, 1 mM glutamine (Gibco), MEM-amino acids mixture (1:50), MEM-vitamins mixture (1:100; Gibco), and penicillin-streptomycin (1:100; Gibco), pH = 7.2, at 37°C in a CO2- and humidity-controlled atmosphere.
After washing the slices in medium, individual guinea pig lung slices were mechanically maintained with a Teflon ring with an inner diameter of 7 mm and covered with 1 mL of incubation buffer. […] Image acquisition software (NIS-Elements, Nikon) was used to quantify airway luminal area. Images of the airways were acquired every 2 seconds during the whole course of the experiment, starting 2 minutes before the addition of any agent to allow for baseline measurements of the airway caliber. For each methacholine or ovalbumin concentration, the maximal airway constriction was expressed as percentage of the initial (baseline) airway luminal area and plotted against that concentration.

human lung slices = assay: Methacholine-induced airway constriction in human lung slices; format: cell-based; conditions: for MCh-induced airway constriction response (Figure 7): donor 1-4
Description: All curve fits were generated using the software program GraphPad Prism. Data are represented as mean ± SEM of 4 human donors (see Table 3 for statistical analyses).
Precision-cut human lung slices were purchased from AnaBios and stored in a liquid nitrogen tank. Lung tissue was obtained postmortem and consent for research was obtained by AnaBios for all donors. Characteristics of the donors of the lung tissue are shown in Supplemental Table 2. Slices were rapidly thawed following instructions from AnaBios.
After washing, individual human lung slices were mechanically maintained with a Teflon ring with an inner diameter of 7 mm and covered with 1 mL of incubation buffer. […] Image acquisition software (NIS-Elements, Nikon) was used to quantify airway luminal area. […] Airway constriction in response to each methacholine concentration was expressed as percentage of the initial airway luminal area.

[1] = 10 µM Fenoterol, -Log [MCh] 7.5

CC(Cc1ccc(O)cc1)NCC(O)c1cc(O)cc(O)c1 (stereo not drawn) [Fenoterol, fenoterol]
MCh-induced airway constriction response (Figure 5D) (guinea pig lung slices; 10 µM Fenoterol, -Log [MCh] 7): 77.1 and 109.6 and 109.2 and 101.3 and 91.9 | airway area in MCh concentration-response (Figure 5A/5C) (guinea pig lung slices; [1]): 94.2 and 110.7 and 102.7 and 105.1 | MCh-induced airway constriction response (Figure 5D) (guinea pig lung slices; [1]): 94.2 and 110.7 and 102.7 and 105.1 | airway area in MCh concentration-response (Figure 5A/5C) (guinea pig lung slices; 10 µM Fenoterol, -Log [MCh] 8): 106.3 and 110.5 and 104.8 | MCh-induced airway constriction response (Figure 5D) (guinea pig lung slices; 10 µM Fenoterol, -Log [MCh] 8): 106.3 and 110.5 and 104.8 | MCh-induced airway constriction response (Figure 5D) (guinea pig lung slices; 100 µM Fenoterol, -Log [MCh] 6.5): 82.5 and 88.6 and 98.9 and 92.2 and 82.0 | MCh-induced airway constriction response (Figure 5D) (guinea pig lung slices; 100 µM Fenoterol, -Log [MCh] 7): 98.1 and 101.4 and 98.8 and 109.0 and 104.9 | MCh-induced airway constriction response (Figure 5D) (guinea pig lung slices; 100 µM Fenoterol, -Log [MCh] 7.5): 106.4 and 100.0 and 110.6 and 99.9 | MCh-induced airway constriction response (Figure 5D) (guinea pig lung slices; 100 µM Fenoterol, -Log [MCh] 8): 101.0 and 105.4 and 99.3 and 99.7 | EC50 (guinea pig lung slices; read-out: MCh EC50, 1 μM Fenoterol): 370 ± 80 nM | EC50 (guinea pig lung slices; read-out: MCh EC50, 10 μM Fenoterol): 560 ± 30 nM | EC50 (guinea pig lung slices; read-out: MCh EC50, 100 μM Fenoterol): 1000 ± 150 nM | MCh-induced airway constriction response (Figure 7) (human lung slices; 1 µM Fenoterol, -Log [MCh] 3.5): 66.3 and 38.1 and 61.4 and 57.2 | MCh-induced airway constriction response (Figure 7) (human lung slices; 1 µM Fenoterol, -Log [MCh] 4): 66.7 and 40.2 and 56.4 and 59 | MCh-induced airway constriction response (Figure 7) (human lung slices; 1 µM Fenoterol, -Log [MCh] 4.5): 64.6 and 41.7 and 58.9 and 57.8 | MCh-induced airway constriction response (Figure 7) (human lung slices; 1 µM Fenoterol, -Log [MCh] 5): 64.0 and 44.2 and 53.4 and 60.0 | MCh-induced airway constriction response (Figure 7) (human lung slices; 1 µM Fenoterol, -Log [MCh] 5.5): 70.0 and 50.2 and 57.7 and 59.1 | MCh-induced airway constriction response (Figure 7) (human lung slices; 1 µM Fenoterol, -Log [MCh] 6): 78.6 and 52.9 and 60.3 and 62.9 | MCh-induced airway constriction response (Figure 7) (human lung slices; 1 µM Fenoterol, -Log [MCh] 6.5): 78.2 and 58.1 and 66.2 and 68.4 | MCh-induced airway constriction response (Figure 7) (human lung slices; 1 µM Fenoterol, -Log [MCh] 7): 83.5 and 66.4 and 73.5 and 75.0 | MCh-induced airway constriction response (Figure 7) (human lung slices; 1 µM Fenoterol, -Log [MCh] 7.5): 90.1 and 68.0 and 78.3 and 79.7 | MCh-induced airway constriction response (Figure 7) (human lung slices; 1 µM Fenoterol, -Log [MCh] 8): 97.8 and 78.9 and 83.6 and 92.0 | MCh-induced airway constriction response (Figure 7) (human lung slices; 1 µM Fenoterol, -Log [MCh] 8.5): 89.0 and 94.8 and 96.5 | MCh-induced airway constriction response (Figure 7) (human lung slices; 1 µM Fenoterol, -Log [MCh] 9): 100.2 and 93.5 and 97.1 and 98.8 | Airway luminal area at the highest methacholine concentration (human lung slices; 1 μM fenoterol): 55.7% ± 6.2% | MCh-induced airway constriction response (Figure 7) (human lung slices; 10 µM Fenoterol, -Log [MCh] 3.5): 79.8 and 72.5 and 79.3 and 86.4 | MCh-induced airway constriction response (Figure 7) (human lung slices; 10 µM Fenoterol, -Log [MCh] 4): 80.3 and 75.3 and 80 and 86.3 | MCh-induced airway constriction response (Figure 7) (human lung slices; 10 µM Fenoterol, -Log [MCh] 4.5): 83.8 and 75.6 and 80.1 and 86.9 | MCh-induced airway constriction response (Figure 7) (human lung slices; 10 µM Fenoterol, -Log [MCh] 5): 91.0 and 83.4 and 80.2 and 86.4 | MCh-induced airway constriction response (Figure 7) (human lung slices; 10 µM Fenoterol, -Log [MCh] 5.5): 98.1 and 86.0 and 82.0 and 87.9 | MCh-induced airway constriction response (Figure 7) (human lung slices; 10 µM Fenoterol, -Log [MCh] 6): 99.0 and 86.3 and 86.9 and 91.9 | MCh-induced airway constriction response (Figure 7) (human lung slices; 10 µM Fenoterol, -Log [MCh] 6.5): 99.5 and 90.2 and 90.4 and 97.1 | MCh-induced airway constriction response (Figure 7) (human lung slices; 10 µM Fenoterol, -Log [MCh] 7): 99.7 and 93.0 and 91.3 and 96.6 | MCh-induced airway constriction response (Figure 7) (human lung slices; [1]): 94.8 and 96.0 and 99.4 | MCh-induced airway constriction response (Figure 7) (human lung slices; 10 µM Fenoterol, -Log [MCh] 8): 101.4 and 95.9 and 99.4 and 100.7 | MCh-induced airway constriction response (Figure 7) (human lung slices; 10 µM Fenoterol, -Log [MCh] 8.5): 103.2 and 98.6 and 100.6 and 95.6 | MCh-induced airway constriction response (Figure 7) (human lung slices; 10 µM Fenoterol, -Log [MCh] 9): 100.3 and 99.4 and 101.1 and 99.5 | Airway luminal area at the highest methacholine concentration (human lung slices; 10 μM fenoterol): 79.5% ± 2.8% | EC50 (human lung slices; Homo sapiens, read-out: MCh pD2, 10 μM Fenoterol (converted)): 1700 nM
